These results are taken from patent US10041905B2, “Electrochemically active agents for pH modulation in biological buffers” (Robert Bosch GmbH, priority 2015, dated 2018).

Data set [1] is described as follows: Electrochemical generation of H+ or OH- ions at indium tin oxide electrode surfaces (electro-oxidation / electro-reduction, cyclic voltammetry). Type of data set: physicochemical. The source says: Electrode material used: The electrode material was indium tin oxide. This is a semiconducting electrode surface with very large potential window in an aqueous solution.
Oxidation of ascorbic acid at the electrode surfaces produced H^+ ions and changed the electrode surface pH to a more acidic state: AH2→A+2H^++2e^−, where AH2 is ascorbic acid ([…]) (as shown in FIG. 5). The electrode potential at which it oxidizes was less than 0.5V for Indium tin oxide material vs Ag/AgCl reference electrode (as shown in FIG. 7). This potential was less than the voltages needed for the oxygen evolution reaction in aqueous solution. The ascorbic acid also acted as a sacrificial species to prevent electrochemical degradation of the surface chemistry.
Reduction of benzoquinone (C6H4O2) into Hydroquinone (C6H6O2) can produce OH^− ions at −0.1V: BQ+2e^−+2H2O →HQ+2OH^− This reduction reaction increased the pH at the electrode interface.

Data set [2] concerns the target T1, Green Fluorescent Protein (GFP) (Aequorea victoria, UniProt P42212). The settings on record: literature (Loomis et al.; U.S. Pat. No. 6,753,312); cited from earlier work.
The target of data set [3] is T1, Green Fluorescent Protein (GFP). Description: Fluorescence intensity of GFP after incubation with benzoquinones (protein stability). It is filed as biochemical. The settings on record: 0.5 mM benzoquinone, phosphate buffered saline, 30 min. The protocol: Para-benzoquinones and ortho-benzoquinones (compounds 2, 4, 6, and 9 in FIG. 31) are susceptible to nucleophilic attack at the double bond of the ring (positions 2, 3, 5 and 6 in structure 2 of FIG. 31, positions 3, 4, 5 and 6 in structure 4 of FIG. 31, and positions 2 and 3 in structure 6 of FIG. 31). Introducing substituents at some or all of those positions can mitigate the problem of nucleophilic attack. […] Fluorescence intensity of Green Fluorescent Protein (GFP) was measured after incubation with three different benzoquinones in phosphate buffered saline for 30 min (concentration of benzoquinones was 0.5 mM). The difference in fluorescence intensity indicates the varied effect that the different substitutions in benzoquinones have on the stability of GFP. Fluorescence intensity of GFP is indicative of its structural integrity. Losses in fluorescence intensity usually indicate loss of its tertiary structure (protein denaturation) (Yin D. X., Zhu L., Schimke R. T. Anal. Biochem. 1996, 235:195-201).

Turning to `O=C1O[C@H]([C@@H](O)CO)C(O)=C1O` [ascorbic acid], the “potential of current increase indicating start of oxidation” value in data set [1] (cyclic voltammetry, ITO electrodes) is reported as “around 0.25 V”. Moreover, the “electrode potential at which it oxidizes” value in data set [1] (indium tin oxide vs Ag/AgCl reference electrode) is listed as “less than 0.5 V”.
Regarding `O=C1C=CC(=O)C=C1` [unsubstituted benzoquinone, 1,4-benzoquinone], the “potential of reduction producing OH- ions” value in data set [1] (reduction of benzoquinone into hydroquinone) was −0.1 V. In data set [2], the “Michael addition reaction with amino groups of proteins” value is “undergoes Michael addition reaction”. Besides, the “loss in GFP fluorescence intensity after incubation” value in data set [3] came to 25%.
